Among the data in the supplement of paper PMC10307832 are relative viability values, retold here.

Holding throughout (test): relative viability (nuclei count vs DMSO), 5 days (fraction); higher = more cells survive
Compound in the assay “GSK-J4 + Luminespib”: CCOC(=O)CCNc1cc(N2CCc3ccccc3CC2)nc(-c2ccccn2)n1 [GSK-J4] + CCNC(=O)c1noc(-c2cc(C(C)C)c(O)cc2O)c1-c1ccc(CN2CCOCC2)cc1 [Luminespib] (partner 0.01 µM)
In outline: (§1)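 One day after seeding in 1536-well plates, lung cancer cell lines were dosed by pin tool. Dosing was either single-drug or a fixed anchor-drug dose plus five library-drug doses (not always all listed) in √10 steps. After 5 days, nuclei were stained in one fix-and-stain step and counted on 4× images, and relative viability is the nuclei count of treated wells over that of vehicle wells, given as the median of duplicate plates.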

Compound in the assay “AZ3146 + Trametinib”: CN1CCC(CC1)OC2=CC(=C(C=C2)NC3=NC=C4C(=N3)N(C(=O)N4C)C5CCCC5)OC [AZ3146] + CC(=O)Nc1cccc(-n2c(=O)n(C3CC3)c(=O)c3c(Nc4ccc(I)cc4F)n(C)c(=O)c(C)c32)c1 [Trametinib] (partner 0.02 µM)
The method in brief: as §1

Compound in the assay “AZ3146 + Linsitinib”: CN1CCC(CC1)OC2=CC(=C(C=C2)NC3=NC=C4C(=N3)N(C(=O)N4C)C5CCCC5)OC [AZ3146] + C[C@]1(O)C[C@@H](c2nc(-c3ccc4ccc(-c5ccccc5)nc4c3)c3c(N)nccn32)C1 [Linsitinib] (partner 1 µM)
In outline: as §1

Compound in the assay “AZ3146 + Decitabine”: CN1CCC(CC1)OC2=CC(=C(C=C2)NC3=NC=C4C(=N3)N(C(=O)N4C)C5CCCC5)OC [AZ3146] + Nc1ncn([C@H]2C[C@H](O)[C@@H](CO)O2)c(=O)n1 [Decitabine] (partner 2 µM)
In outline:
as §1

Turning to NCI-H647, the relative viability with GSK-J4 + Luminespib (first compound 0.5 µM) is 0.29; in the assay with GSK-J4 + Luminespib (first compound 1.581 µM), 0.125; in the assay with GSK-J4 + Luminespib (first compound 5 µM), 0.235; with GSK-J4 + Luminespib (first compound 15.81 µM) it was 0.166; with GSK-J4 + Luminespib (first compound 50 µM), 0.125; with AZ3146 + Trametinib (first compound 0.08 µM), 0.365. The relative viability in the assay with AZ3146 + Trametinib (first compound 0.253 µM) was 0.44; with AZ3146 + Trametinib (first compound 0.8 µM), 0.366; in the assay with AZ3146 + Trametinib (first compound 2.53 µM), 0.476; with AZ3146 + Trametinib (first compound 8 µM), 0.317; with AZ3146 + Linsitinib (first compound 0.08 µM), 1.14; with AZ3146 + Linsitinib (first compound 0.253 µM), 1.3. Besides, the relative viability was determined as 1.1 in the assay with AZ3146 + Linsitinib (first compound 0.8 µM); 1.16 with AZ3146 + Linsitinib (first compound 2.53 µM); 0.434 with AZ3146 + Linsitinib (first compound 8 µM); 0.359 with AZ3146 + Decitabine (first compound 0.08 µM); 0.521 with AZ3146 + Decitabine (first compound 0.253 µM); 0.381 in the assay with AZ3146 + Decitabine (first compound 0.8 µM). The relative viability with AZ3146 + Decitabine (first compound 2.53 µM) amounted to 0.441; in the assay with AZ3146 + Decitabine (first compound 8 µM), 0.329.
As for NCI-H650, the relative viability with GSK-J4 + Luminespib (first compound 0.5 µM) stood at 0.688; in the assay with GSK-J4 + Luminespib (first compound 1.581 µM), 0.682; in the assay with GSK-J4 + Luminespib (first compound 5 µM) it was 0.597; with GSK-J4 + Luminespib (first compound 15.81 µM), 0.749; with GSK-J4 + Luminespib (first compound 50 µM) it was 0.519; in the assay with AZ3146 + Trametinib (first compound 0.08 µM), 0.899. Also, the relative viability in the assay with AZ3146 + Trametinib (first compound 0.253 µM) stood at 0.959; in the assay with AZ3146 + Trametinib (first compound 0.8 µM), 0.959; in the assay with AZ3146 + Trametinib (first compound 2.53 µM), 0.994; with AZ3146 + Trametinib (first compound 8 µM) it was 1.09; in the assay with AZ3146 + Linsitinib (first compound 0.08 µM) it was 0.539; in the assay with AZ3146 + Linsitinib (first compound 0.253 µM), 0.805. For the same cell line, the relative viability with AZ3146 + Linsitinib (first compound 0.8 µM) is 0.8; in the assay with AZ3146 + Linsitinib (first compound 2.53 µM), 1.26; with AZ3146 + Linsitinib (first compound 8 µM), 0.779; in the assay with AZ3146 + Decitabine (first compound 0.08 µM), 0.307; in the assay with AZ3146 + Decitabine (first compound 0.253 µM), 0.31; in the assay with AZ3146 + Decitabine (first compound 0.8 µM), 0.324. In addition, the relative viability with AZ3146 + Decitabine (first compound 2.53 µM) is 0.317; with AZ3146 + Decitabine (first compound 8 µM) it was 0.323.
In the case of NCI-H661, the relative viability with GSK-J4 + Luminespib (first compound 0.5 µM) was 0.911; with GSK-J4 + Luminespib (first compound 1.581 µM), 0.902; with GSK-J4 + Luminespib (first compound 5 µM), 0.929; with GSK-J4 + Luminespib (first compound 15.81 µM) it was 0.904; in the assay with GSK-J4 + Luminespib (first compound 50 µM), 0.6; with AZ3146 + Trametinib (first compound 0.08 µM), 0.588. For the same cell line, the relative viability with AZ3146 + Trametinib (first compound 0.253 µM) was found to be 0.519; with AZ3146 + Trametinib (first compound 0.8 µM), 0.572; with AZ3146 + Trametinib (first compound 2.53 µM) it was 0.555; with AZ3146 + Trametinib (first compound 8 µM), 0.47; with AZ3146 + Linsitinib (first compound 0.08 µM), 0.61; with AZ3146 + Linsitinib (first compound 0.253 µM), 0.6. In addition, the relative viability in the assay with AZ3146 + Linsitinib (first compound 0.8 µM) came out at 0.603; with AZ3146 + Linsitinib (first compound 2.53 µM), 0.584; in the assay with AZ3146 + Linsitinib (first compound 8 µM) it was 0.616; with AZ3146 + Decitabine (first compound 0.08 µM), 0.541; in the assay with AZ3146 + Decitabine (first compound 0.253 µM), 0.514; with AZ3146 + Decitabine (first compound 0.8 µM) it was 0.607. The values for the relative viability with AZ3146 + Decitabine (first compound 2.53 µM) and with AZ3146 + Decitabine (first compound 8 µM) were 0.555 and 0.448, respectively.
On to NCI-H727, for which the relative viability with GSK-J4 + Luminespib (first compound 0.5 µM) was found to be 0.299; with GSK-J4 + Luminespib (first compound 1.581 µM), 0.402; with GSK-J4 + Luminespib (first compound 5 µM), 0.244; in the assay with GSK-J4 + Luminespib (first compound 15.81 µM), 0.336; in the assay with GSK-J4 + Luminespib (first compound 50 µM), 0.369; with AZ3146 + Trametinib (first compound 0.08 µM) it was 0.359. Moreover, the relative viability with AZ3146 + Trametinib (first compound 0.253 µM) worked out at 0.365; with AZ3146 + Trametinib (first compound 0.8 µM), 0.335; in the assay with AZ3146 + Trametinib (first compound 2.53 µM) it was 0.417; with AZ3146 + Trametinib (first compound 8 µM), 0.364; in the assay with AZ3146 + Linsitinib (first compound 0.08 µM) it was 0.319; with AZ3146 + Linsitinib (first compound 0.253 µM) it was 0.188. Also, the relative viability with AZ3146 + Linsitinib (first compound 0.8 µM) worked out at 0.35; in the assay with AZ3146 + Linsitinib (first compound 2.53 µM), 0.269; with AZ3146 + Linsitinib (first compound 8 µM), 0.26; in the assay with AZ3146 + Decitabine (first compound 0.08 µM), 0.806; with AZ3146 + Decitabine (first compound 0.253 µM), 0.913; with AZ3146 + Decitabine (first compound 0.8 µM), 0.714. For the same cell line, the figures for the relative viability with AZ3146 + Decitabine (first compound 2.53 µM) and with AZ3146 + Decitabine (first compound 8 µM) were 0.766 and 0.783, respectively.
